For data set [1], the target named is T1, UDP-glucuronosyltransferase 1A1 (Homo sapiens, UniProt P22309).
T1 sequence (P22309 whole entry): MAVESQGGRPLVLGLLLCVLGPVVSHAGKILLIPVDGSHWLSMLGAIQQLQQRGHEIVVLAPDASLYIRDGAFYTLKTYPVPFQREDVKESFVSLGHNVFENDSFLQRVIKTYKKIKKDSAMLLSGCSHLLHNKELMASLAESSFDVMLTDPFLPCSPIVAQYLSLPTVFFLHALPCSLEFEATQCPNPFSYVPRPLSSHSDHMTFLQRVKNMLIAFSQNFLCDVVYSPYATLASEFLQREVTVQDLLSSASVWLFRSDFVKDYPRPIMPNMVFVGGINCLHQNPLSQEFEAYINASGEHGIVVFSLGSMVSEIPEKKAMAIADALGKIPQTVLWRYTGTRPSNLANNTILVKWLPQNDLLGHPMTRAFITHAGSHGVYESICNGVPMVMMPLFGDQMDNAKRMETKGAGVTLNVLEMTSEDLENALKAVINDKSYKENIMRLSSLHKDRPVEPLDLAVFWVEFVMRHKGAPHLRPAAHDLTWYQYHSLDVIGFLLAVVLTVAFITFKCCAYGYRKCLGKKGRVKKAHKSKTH
Briefly: Drug metabolism assessed as recombinant human UGT1A1 assessed as O-glucuronidation at 100 uM incubated for 60 mins by LC-MS/MS analysis. The data set is classed as ADME. Particulars: recombinant enzyme, 1 h.

The target in data set [2] is T2, UDP-glucuronosyltransferase 2B4 (Homo sapiens, UniProt P06133).
T2 sequence (P06133 whole entry): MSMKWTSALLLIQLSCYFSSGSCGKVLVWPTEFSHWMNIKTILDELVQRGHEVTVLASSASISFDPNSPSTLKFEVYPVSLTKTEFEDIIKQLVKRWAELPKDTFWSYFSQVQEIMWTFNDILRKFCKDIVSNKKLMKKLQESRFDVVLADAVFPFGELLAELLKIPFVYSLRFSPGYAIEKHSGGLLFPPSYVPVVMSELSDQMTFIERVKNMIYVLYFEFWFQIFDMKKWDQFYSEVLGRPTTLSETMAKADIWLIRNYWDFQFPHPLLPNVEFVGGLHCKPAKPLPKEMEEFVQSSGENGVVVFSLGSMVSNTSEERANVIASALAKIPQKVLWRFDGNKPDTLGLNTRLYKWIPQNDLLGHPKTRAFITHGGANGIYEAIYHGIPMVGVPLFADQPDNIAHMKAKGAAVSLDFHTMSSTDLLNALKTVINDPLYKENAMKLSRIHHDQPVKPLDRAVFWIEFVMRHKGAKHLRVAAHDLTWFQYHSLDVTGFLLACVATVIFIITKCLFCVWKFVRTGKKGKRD
As to the kind of experiment: Drug metabolism assessed as recombinant human UGT2B4 assessed as O-glucuronidation at 100 uM incubated for 60 mins by LC-MS/MS analysis. Particulars: recombinant enzyme, 1 h. Format: ADME.

Data set [3] concerns the target T3, UDP-glucuronosyltransferase 1A7 (Homo sapiens, UniProt Q9HAW7).
T3 sequence (Q9HAW7 whole entry): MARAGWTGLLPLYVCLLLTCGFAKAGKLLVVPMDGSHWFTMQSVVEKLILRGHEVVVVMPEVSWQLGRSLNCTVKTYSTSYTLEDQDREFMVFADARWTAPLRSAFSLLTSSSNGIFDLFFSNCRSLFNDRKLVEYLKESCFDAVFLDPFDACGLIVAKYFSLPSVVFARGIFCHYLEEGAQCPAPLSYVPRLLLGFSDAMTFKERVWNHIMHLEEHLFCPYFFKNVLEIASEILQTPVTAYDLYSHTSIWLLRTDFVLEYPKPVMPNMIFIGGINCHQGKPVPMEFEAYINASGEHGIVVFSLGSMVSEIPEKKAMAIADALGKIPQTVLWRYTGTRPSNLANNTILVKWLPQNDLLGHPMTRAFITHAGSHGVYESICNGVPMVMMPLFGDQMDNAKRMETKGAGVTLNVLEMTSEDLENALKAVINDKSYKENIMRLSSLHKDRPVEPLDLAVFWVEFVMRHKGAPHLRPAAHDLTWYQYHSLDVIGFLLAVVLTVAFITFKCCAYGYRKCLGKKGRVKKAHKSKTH
Briefly: Drug metabolism assessed as recombinant human UGT1A7 assessed as N-glucuronidation at 100 uM incubated for 60 mins by LC-MS/MS analysis. Format: ADME. Particulars: recombinant enzyme, 1 h.

The target in data set [4] is T2, UDP-glucuronosyltransferase 2B4. Briefly: Drug metabolism assessed as recombinant human UGT2B4 assessed as N-glucuronidation at 100 uM incubated for 60 mins by LC-MS/MS analysis. Format: ADME. Particulars: recombinant enzyme, 1 h.
In data set [5] the target is T4, UGT1A9 (Homo sapiens, UniProt O60656).
T4 sequence (O60656 whole entry): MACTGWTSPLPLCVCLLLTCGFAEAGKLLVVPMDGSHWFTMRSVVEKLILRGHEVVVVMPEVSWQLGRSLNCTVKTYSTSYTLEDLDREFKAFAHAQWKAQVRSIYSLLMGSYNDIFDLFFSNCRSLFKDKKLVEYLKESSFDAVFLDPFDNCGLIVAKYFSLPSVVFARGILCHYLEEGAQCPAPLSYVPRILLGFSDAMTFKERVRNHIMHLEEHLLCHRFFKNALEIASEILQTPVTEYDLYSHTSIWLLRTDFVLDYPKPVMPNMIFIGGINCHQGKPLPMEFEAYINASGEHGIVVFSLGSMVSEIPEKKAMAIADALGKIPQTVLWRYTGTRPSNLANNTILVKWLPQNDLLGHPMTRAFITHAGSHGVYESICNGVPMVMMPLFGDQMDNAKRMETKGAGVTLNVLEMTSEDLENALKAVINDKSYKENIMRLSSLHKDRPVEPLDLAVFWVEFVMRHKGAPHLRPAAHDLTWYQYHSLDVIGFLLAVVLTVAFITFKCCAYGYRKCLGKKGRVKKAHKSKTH
Briefly: Drug metabolism assessed as recombinant human UGT1A9 assessed as O-glucuronidation at 10 to 400 uM incubated for 60 mins by LC-MS/MS analysis.

The target in data set [6] is T5, UDP-glucuronosyltransferase 1A9 (Homo sapiens, UniProt O60656).
T5 sequence (O60656 whole entry): T4 sequence (O60656 whole entry)
As to the kind of experiment: Drug metabolism assessed as recombinant human UGT1A9 assessed as O-glucuronidation measured as inhibition constant at 10 to 400 uM incubated for 60 mins by LC-MS/MS analysis.

The structures appear in SMILES notation.

The source of these data is ChEMBL document CHEMBL3526000 (Drug Metab Dispos, 2012).

Turning to `O=C(CCCN1CCC(O)(c2ccc(Cl)cc2)CC1)c1ccc(F)cc1` [HALOPERIDOL], the Drug metabolism result in data set [1], in data set [2], in data set [3] and in data set [4] was “metabolite_not_detected” each time. Further, the Km (commonly the concentration of substrate that gives half-maximal velocity) at 1 h, 400 µM in data set [5] was found to be 174 µM. Further, in data set [6], the inhibition constant (Ki) (commonly the equilibrium dissociation constant of an inhibitor or competing ligand from its target) was determined as 344 µM.
